These are literature values, as cited in US8673586B2, “Compounds that interact with kinases” (Alchemia Limited, priority 2002, dated 2014).

In one series the target is MKK1 (Homo sapiens, UniProt Q02750). The settings on record: inhibitor concentration 10 μM; cited from earlier work.
For a further series, the system named is CK1. The settings on record: inhibitor concentration 10 μM; cited from earlier work.
The target of a further series is SAPK2a (Homo sapiens, UniProt Q16539). The settings on record: inhibitor concentration 10 μM; cited from earlier work.
In another series the target is CDK2 (Homo sapiens, UniProt P24941). The note with it: inhibitor concentration 10 μM; cited from earlier work.
For a further series, the target named is MSK-1 (Homo sapiens, UniProt O75582). The settings on record: inhibitor concentration 1 μM; cited from earlier work.
The next series has as its target PKCα (Homo sapiens, UniProt P17252). The settings on record: inhibitor concentration 1 μM; cited from earlier work.
Another series addresses GSK3β (Homo sapiens, UniProt P49841). The settings on record: inhibitor concentration 1 μM; cited from earlier work.
Another series concerns the target MAPKAPK1b (Homo sapiens, UniProt P51812). The settings on record: inhibitor concentration 1 μM; cited from earlier work.
Another series has as its target S6K1 (Homo sapiens, UniProt P23443). The settings on record: inhibitor concentration 1 μM; cited from earlier work.

MSK-1, sequence (O75582 whole entry, species assumed): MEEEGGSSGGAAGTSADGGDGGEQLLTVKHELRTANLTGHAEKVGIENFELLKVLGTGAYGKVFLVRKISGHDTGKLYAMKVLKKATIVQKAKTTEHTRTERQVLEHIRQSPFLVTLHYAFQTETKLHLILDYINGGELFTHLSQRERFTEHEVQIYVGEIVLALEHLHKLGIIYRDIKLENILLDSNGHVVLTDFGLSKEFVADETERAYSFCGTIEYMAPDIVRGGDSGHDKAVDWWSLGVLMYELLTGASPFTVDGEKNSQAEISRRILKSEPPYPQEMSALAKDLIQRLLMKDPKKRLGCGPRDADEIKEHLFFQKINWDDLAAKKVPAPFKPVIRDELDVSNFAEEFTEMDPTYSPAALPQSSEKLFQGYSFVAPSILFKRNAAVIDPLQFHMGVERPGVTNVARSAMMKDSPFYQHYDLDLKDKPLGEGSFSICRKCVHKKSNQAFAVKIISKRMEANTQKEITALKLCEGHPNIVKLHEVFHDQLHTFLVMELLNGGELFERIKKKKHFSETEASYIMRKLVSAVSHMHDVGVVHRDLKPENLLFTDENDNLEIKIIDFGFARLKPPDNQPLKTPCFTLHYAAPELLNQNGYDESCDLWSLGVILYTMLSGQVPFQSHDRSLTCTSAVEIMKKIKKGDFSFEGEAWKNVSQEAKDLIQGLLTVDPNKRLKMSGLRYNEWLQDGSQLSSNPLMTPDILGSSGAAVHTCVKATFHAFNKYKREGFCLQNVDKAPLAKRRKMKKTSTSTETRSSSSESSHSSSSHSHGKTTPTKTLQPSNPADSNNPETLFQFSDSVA
GSK3β, sequence (P49841 whole entry, species assumed): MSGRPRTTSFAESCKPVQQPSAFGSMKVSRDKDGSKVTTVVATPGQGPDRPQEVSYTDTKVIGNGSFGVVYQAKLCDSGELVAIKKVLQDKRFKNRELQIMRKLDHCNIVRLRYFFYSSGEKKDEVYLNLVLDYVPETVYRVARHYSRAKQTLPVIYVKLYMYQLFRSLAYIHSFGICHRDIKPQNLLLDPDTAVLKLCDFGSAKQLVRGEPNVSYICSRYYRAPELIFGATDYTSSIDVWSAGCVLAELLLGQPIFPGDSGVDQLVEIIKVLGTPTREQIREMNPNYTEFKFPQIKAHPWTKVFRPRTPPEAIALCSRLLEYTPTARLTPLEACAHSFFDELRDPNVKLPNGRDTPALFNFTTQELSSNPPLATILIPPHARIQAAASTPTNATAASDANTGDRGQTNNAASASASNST
SAPK2a, sequence (Q16539 whole entry, species assumed): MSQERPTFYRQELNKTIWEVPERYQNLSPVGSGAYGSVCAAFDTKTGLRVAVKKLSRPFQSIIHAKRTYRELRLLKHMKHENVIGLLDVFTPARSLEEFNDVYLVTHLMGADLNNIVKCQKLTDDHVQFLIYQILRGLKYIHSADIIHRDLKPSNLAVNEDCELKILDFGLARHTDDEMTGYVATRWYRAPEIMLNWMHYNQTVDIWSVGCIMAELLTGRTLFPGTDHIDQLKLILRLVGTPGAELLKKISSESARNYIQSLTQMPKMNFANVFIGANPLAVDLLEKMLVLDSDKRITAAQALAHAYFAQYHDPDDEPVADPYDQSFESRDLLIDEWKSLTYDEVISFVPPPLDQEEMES
MKK1, sequence (Q02750 whole entry, species assumed): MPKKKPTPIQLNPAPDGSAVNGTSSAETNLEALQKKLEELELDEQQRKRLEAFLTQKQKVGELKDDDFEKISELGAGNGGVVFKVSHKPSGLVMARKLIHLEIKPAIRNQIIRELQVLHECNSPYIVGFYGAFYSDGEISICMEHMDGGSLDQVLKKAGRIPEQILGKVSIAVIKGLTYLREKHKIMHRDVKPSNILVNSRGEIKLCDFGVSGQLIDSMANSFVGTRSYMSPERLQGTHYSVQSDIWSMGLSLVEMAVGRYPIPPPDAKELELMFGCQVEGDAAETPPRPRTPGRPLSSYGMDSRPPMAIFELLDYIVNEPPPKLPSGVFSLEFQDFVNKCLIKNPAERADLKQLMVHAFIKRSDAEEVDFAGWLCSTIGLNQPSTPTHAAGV
MAPKAPK1b, sequence (P51812 whole entry, species assumed): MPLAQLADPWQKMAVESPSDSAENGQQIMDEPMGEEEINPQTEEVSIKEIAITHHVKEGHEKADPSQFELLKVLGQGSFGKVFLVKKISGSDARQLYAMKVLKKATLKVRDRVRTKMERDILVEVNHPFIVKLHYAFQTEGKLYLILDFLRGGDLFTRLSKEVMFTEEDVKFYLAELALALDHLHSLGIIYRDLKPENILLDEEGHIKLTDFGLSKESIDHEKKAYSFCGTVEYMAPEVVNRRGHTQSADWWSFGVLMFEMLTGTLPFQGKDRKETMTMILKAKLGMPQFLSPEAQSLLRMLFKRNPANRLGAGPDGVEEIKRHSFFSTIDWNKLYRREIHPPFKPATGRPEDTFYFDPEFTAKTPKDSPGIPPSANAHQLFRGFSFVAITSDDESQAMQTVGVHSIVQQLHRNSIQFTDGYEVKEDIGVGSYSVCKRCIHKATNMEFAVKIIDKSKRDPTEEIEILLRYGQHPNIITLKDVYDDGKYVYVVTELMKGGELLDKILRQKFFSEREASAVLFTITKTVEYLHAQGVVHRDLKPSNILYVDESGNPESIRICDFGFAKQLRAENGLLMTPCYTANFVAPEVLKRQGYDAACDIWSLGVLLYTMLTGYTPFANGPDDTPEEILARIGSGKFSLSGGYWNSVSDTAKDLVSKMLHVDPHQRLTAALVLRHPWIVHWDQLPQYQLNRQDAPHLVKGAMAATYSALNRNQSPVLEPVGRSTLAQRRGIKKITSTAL
S6K1, sequence (P23443 whole entry, species assumed): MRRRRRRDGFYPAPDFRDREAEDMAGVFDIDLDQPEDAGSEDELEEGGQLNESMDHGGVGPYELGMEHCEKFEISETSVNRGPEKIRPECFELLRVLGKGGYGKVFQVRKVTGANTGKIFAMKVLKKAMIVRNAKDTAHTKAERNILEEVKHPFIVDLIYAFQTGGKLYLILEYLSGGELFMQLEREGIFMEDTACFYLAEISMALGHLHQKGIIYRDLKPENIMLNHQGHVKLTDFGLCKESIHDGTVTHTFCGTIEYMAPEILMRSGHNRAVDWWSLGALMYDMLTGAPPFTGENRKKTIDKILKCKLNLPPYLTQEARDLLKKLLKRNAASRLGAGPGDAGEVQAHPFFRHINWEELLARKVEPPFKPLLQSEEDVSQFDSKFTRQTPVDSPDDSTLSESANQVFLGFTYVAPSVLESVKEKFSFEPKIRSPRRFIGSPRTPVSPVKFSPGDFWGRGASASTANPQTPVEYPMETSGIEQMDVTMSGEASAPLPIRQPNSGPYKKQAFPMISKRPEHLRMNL

Turning to `CC(C)(C)n1nc(-c2ccc(Cl)cc2)c2c(N)ncnc21` [PP2], the “residual activity MKK1” value on MKK1 is reported as 55%. In the series with CK1, the “residual activity CK1” value is on record as 6%. The “residual activity SAPK2a” value on SAPK2a was 21%. The “residual activity CDK2” value at CDK2 is 3%.

In the case of Ro-31-8220, the “residual activity MSK1” value at MSK-1 is recorded as 2%. For the same compound, at PKCα, the “residual activity PKCα” value is on record as 3%. Also, on GSK3β, the “residual activity GSK3β” value is 5%. Further, on MAPKAPK1b, the “residual activity MAPKAPK1b” value is reported as 2%. Further, the “residual activity S6K1” value at S6K1 was 6%.
